# According to patent publication US11110158B2, “Prostate-associated antigens and vaccine-based immunotherapy regimens” (Pfizer Inc., priority 2012, dated 2021):
# Where “and” joins values, the source holds several entries; their conditions need not be identical. Equal values may be shown once.
# Tested on: human PSMA
# Assay: IFNγ ELISPOT of PBMCs, PSMA vaccine with or without anti-CTLA-4 in Indian rhesus macaques, human PSMA recall antigens
# Assay type: in vivo, rhesus macaque
# From the text: Three groups of male Indian rhesus macaques, five to six (#1 to 5 or 6) per each test group, were immunized with a nucleic acid (SEQ ID NO: 10) that encodes a human PSMA modified antigen (SEQ ID NO: 9) delivered by adenovirus (1e11 V.P. injected intramuscularly) followed by 2 DNA immunizations (8 actuations/immunization, 4 actuations per each right and left side of the lower abdomen) by PMED with 6 and 9 week intervals respectively. Animals in Groups 2 and 3 additionally received bilateral intradermal injections of 3 mg of CpG (PF-03512676) subsequently after the PMED immunization in proximity to each inguinal draining lymph node. Group 2 also received intravenous injections of anti-CTLA-4 monoclonal antibody (CP-675, 206) at 10 mg/kg and group 3 received intradermal injections of anti-CTLA-4 monoclonal antibody (CP-675, 206) at 5 mg/kg in proximity to each left and right inguinal vaccine draining lymph node at the time of the second PMED immunization.
# Peripheral blood samples were collected from each animal sixteen days after the last PMED immunization. Peripheral blood mononuclear cells (PBMCs) were isolated from the samples and were subjected to an IFNγ ELISPOT assay to measure the PSMA specific T cell responses. Briefly, 4e5 PBMCs from individual animals were plated per well with pools of PSMA specific peptides each at 2 ug/ml hPSMA ECD protein at 10 ug/ml, rhesus PSMA ECD protein at 10 ug/ml or nonspecific control peptides (human HER2 peptide pool) each at 2 ug/ml in IFNγ ELISPOT plates. The plates were incubated for 16 hrs at 37° C. and 5% CO2 and washed and developed after incubation as per manufacturer's instruction. The number of IFNγ spot forming cells (SFC) were counted by CTL reader. Each condition was performed in duplicates.
# A capture antibody specific to IFNγ([…]BD Bioscience, #51-2525kc) is coated onto a polyvinylidene fluoride (PVDF) membrane in a microplate overnight at 4° C. The plate is blocked with serum/protein to prevent nonspecific binding to the antibody. After blocking, effector cells (such as splenocytes isolated from immunized mice or PBMCs isolated from rhesus macaques) and targets (such as PSMA peptides from peptide library, target cells pulsed with antigen specific peptides or tumor cells expressing the relevant antigens) are added to the wells and incubated overnight at 37° C. in a 5% CO2 incubator. Cytokine secreted by effector cells are captured by the coating antibody on the surface of the PVDF membrane. After removing the cells and culture media, 100 μl of a biotinylated polyclonal anti-humanIFNγ antibody was added to each of the wells for detection. The spots are visualized by adding streptavidin-horseradish peroxidase and the precipitate substrate, 3-amino-9-ethylcarbazole (AEC), to yield a red color spot as per manufacturer's (Mabtech) protocol. Each spot represents a single cytokine producing T cell.
# [1] = Group 2, vaccine + CpG 3 mg intradermal + aCTLA4 10 mg/kg intravenous (IV), rhesus PBMCs, normalized to 1e6 PBMCs, one cell per animal, 10 mg/kg
# [2] = Group 3, vaccine + CpG 3 mg intradermal + aCTLA4 5 mg/kg intradermal (ID) near each inguinal node, rhesus PBMCs, normalized to 1e6 PBMCs, ^ too numerous to count, 5 mg/kg
substance,measurement,setting,value
"Tremelimumab: fully human IgG2 anti-CTLA-4 monoclonal antibody, CAS 745013-59-6, SEQ ID NOs:42 and 43","PSMA specific IFNγ SFC, recall antigen H1",[1],71.3 SFC and 2.5 SFC and 1063.8 SFC and 147.5 SFC and 402.5 SFC
same,"PSMA specific IFNγ SFC, recall antigen H2",[1],292.5 SFC and 108.8 SFC and 82.5 SFC and 983.8 SFC and 573.8 SFC
same,"PSMA specific IFNγ SFC, recall antigen P1",[1],23.8 SFC and 0.0 SFC and 58.8 SFC and 25.0 SFC and 15.0 SFC
same,"PSMA specific IFNγ SFC, recall antigen P2",[1],57.5 SFC and 61.3 SFC and 41.3 SFC and 318.8 SFC and 312.5 SFC
same,"PSMA specific IFNγ SFC, recall antigen P3",[1],1.3 SFC and 0.0 SFC and 7.5 SFC and 27.5 SFC and 5.0 SFC
same,"PSMA specific IFNγ SFC, recall antigen hPSMA protein",[1],278.8 SFC and 78.8 SFC and 1197.5 SFC and 1046.3 SFC and 707.5 SFC
same,"PSMA specific IFNγ SFC, recall antigen H2",[2],≥ 1236.3^ SFC and ≥ 1247.5^ SFC and ≥ 1248.8^ SFC and 1173.8 SFC
same,"PSMA specific IFNγ SFC, recall antigen hPSMA protein",[2],≥ 1236.8^ SFC and ≥ 1247.5^ SFC and ≥ 1248.8^ SFC and ≥ 1242.5^ SFC
same,IFNγ T cell responses to PSMA specific peptides and proteins,"group 2: vaccine + CpG (PF-03512676) + systemic (intravenous) anti-CTLA-4 10 mg/kg, versus vaccine alone",modestly enhanced
same,IFNγ T cell responses to PSMA specific peptides and proteins,group 3: vaccine + CpG + anti-CTLA-4 delivered locally by intradermal injections near the vaccine draining lymph node,more potent and significant enhancement of the response
